System: NT2/D1-R1 control and DNMT3B knockdown cells
Test: Genome-wide expression analysis with PAM clusters, control and DNMT3B knockdown cells (Tables 8-14)
Settings: sh-3B + aza, NT2/D1-R1 DNMT3B knockdown, decitabine 10 nM 3 days

Nc1ncn([C@H]2C[C@H](O)[C@@H](CO)O2)c(=O)n1 [aza]
ACSS2 (NM_0010765) gene expression, Mean: 406.693
ADCK1 (NM_020421) gene expression, Mean: 305.179
ADCY1 (NM_021116) gene expression, Mean: 138.949
AGAP1 (NM_014914) gene expression, Mean: 225.72
AK056312 gene expression, Mean: 471.555
ANKRD9 (NM_152326) gene expression, Mean: 896.077
APEH (NM_001640) gene expression, Mean: 1236.16
APP (NM_201414) gene expression, Mean: 393.758
C1orf115 (NM_024709) gene expression, Mean: 380.885
C2orf34 (NM_024766) gene expression, Mean: 286.591
C7orf47 (NM_145030) gene expression, Mean: 749.147
C16orf35 (NM_0010394) gene expression, Mean: 464.104
CA4 (NM_000717) gene expression, Mean: 1313.05
CACNA2D2 (NM_006030) gene expression, Mean: 398.095
CD24 (NM_013230) gene expression, Mean: 4095.34
CD248 (NM_020404) gene expression, Mean: 166.587
CDC42EP5 (NM_145057) gene expression, Mean: 232.63
CDH3 (NM_001793) gene expression, Mean: 1031.14
CEBPB (NM_005194) gene expression, Mean: 886.982
CHST13 (NM_152889) gene expression, Mean: 184.993
CLASP1 (NM_015282) gene expression, Mean: 448.757
CLIP2 (NM_032421) gene expression, Mean: 216.273
COMMD1 (NM_152516) gene expression, Mean: 327.95
COMMD7 (NM_0010993) gene expression, Mean: 1236.98
CRMP1 (NM_0010148) gene expression, Mean: 628.721
CTNNBIP1 (NM_020248) gene expression, Mean: 181.632
CXCL16 (NM_022059) gene expression, Mean: 276.818
CYP2F1 (NM_000774) gene expression, Mean: 134.435
CYP2S1 (NM_030622) gene expression, Mean: 1003.81
DBC1 (NM_014618) gene expression, Mean: 313.757
DDIT4 (NM_019058) gene expression, Mean: 558.55
DGKQ (NM_001347) gene expression, Mean: 236.075
DLL3 (NM_016941) gene expression, Mean: 150.963
DPYSL3 (NM_001387) gene expression, Mean: 841.778
DYM (NM_017653) gene expression, Mean: 332.811
DYSF (NM_003494) gene expression, Mean: 345.371
EPHA1 (NM_005232) gene expression, Mean: 886.512
EVI5L (NM_145245) gene expression, Mean: 248.688
EVL (NM_016337) gene expression, Mean: 840.767
EXTL3 (NM_001440) gene expression, Mean: 869.111
F11R (NM_016946) gene expression, Mean: 218.843
FAF1 (NM_007051) gene expression, Mean: 266.415
FAM125A (NM_138401) gene expression, Mean: 558.795
FAM127A (NM_0010781) gene expression, Mean: 1016.07
FCGBP (NM_003890) gene expression, Mean: 279.685
FDFT1 (NM_004462) gene expression, Mean: 705.216
FIGNL2 (NM_0010136) gene expression, Mean: 289.159
FLNB (NM_001457) gene expression, Mean: 960.275
FOXN3 (NM_005197) gene expression, Mean: 518.292
GAL (NM_015973) gene expression, Mean: 1768.85
GAS7 (NM_201433) gene expression, Mean: 308.927
GLG1 (NM_012201) gene expression, Mean: 913.909
GRAMD1A (NM_020895) gene expression, Mean: 607.142
GTF3C1 (NM_001520) gene expression, Mean: 626.338
HCFC1R1 (NM_0010020) gene expression, Mean: 798.561
HESX1 (NM_003865) gene expression, Mean: 379.045
HINT2 (NM_032593) gene expression, Mean: 706.883
HIST3H2A (NM_033445) gene expression, Mean: 282.379
HIST4H4 (NM_003541) gene expression, Mean: 314.561
HK1 (NM_033500) gene expression, Mean: 4205.36
IDH1 (NM_005896) gene expression, Mean: 1445.11
IL21R (NM_181078) gene expression, Mean: 161.219
JPH3 (NM_020655) gene expression, Mean: 214.843
KIF1A (NM_004321) gene expression, Mean: 150.02
KIF1B (NM_015074) gene expression, Mean: 393.388
LDB2 (NM_001290) gene expression, Mean: 259.706
LDOC1 (NM_012317) gene expression, Mean: 881.126
LHFPL4 (NM_198560) gene expression, Mean: 515.175
LONP1 (NM_004793) gene expression, Mean: 1192.71
LPCAT3 (NM_005768) gene expression, Mean: 456.787
LRBA (NM_006726) gene expression, Mean: 267.501
LRRC33 (NM_198565) gene expression, Mean: 257.521
MAPK3 (NM_0010400) gene expression, Mean: 447.115
MAPKAP1 (NM_0010066) gene expression, Mean: 274.663
MED30 (NM_080651) gene expression, Mean: 707.11
MID1IP1 (NM_021242) gene expression, Mean: 1496.95
MKRN1 (NM_013446) gene expression, Mean: 3678.37
MSRB2 (NM_012228) gene expression, Mean: 698.39
MYO5C (NM_018728) gene expression, Mean: 203.184
NANOG (NM_024865) gene expression, Mean: 1405.64
NCOR2 (NM_006312) gene expression, Mean: 1205.94
NDUFS4 (NM_002495) gene expression, Mean: 375.498
NFE2L3 (NM_004289) gene expression, Mean: 395.959
NGFRAP1 (NM_206917) gene expression, Mean: 1522.67
NKX3-2 (NM_001189) gene expression, Mean: 358.543
NM_014745 gene expression, Mean: 246.953
NPAS1 (NM_002517) gene expression, Mean: 227.998
NPTX2 (NM_002523) gene expression, Mean: 279.223
ODZ3 (NM_0010804) gene expression, Mean: 220.124
P4HB (NM_000918) gene expression, Mean: 2039.07
PACSIN1 (NM_020804) gene expression, Mean: 268.257
PCDH19 (NM_020766) gene expression, Mean: 187.553
PCK2 (NM_0010180) gene expression, Mean: 126.174
PDZD4 (NM_032512) gene expression, Mean: 283.495
PEMT (NM_148172) gene expression, Mean: 1036.99
PEX14 (NM_004565) gene expression, Mean: 423.992
PGM1 (NM_002633) gene expression, Mean: 3256.12
PHC1 (NM_004426) gene expression, Mean: 2226.1
PIM2 (NM_006875) gene expression, Mean: 2475.84
PITPNC1 (NM_181671) gene expression, Mean: 287.618
PNKP (NM_007254) gene expression, Mean: 570.846
PPAP2A (NM_176895) gene expression, Mean: 646.273
PPP1R1B (NM_181505) gene expression, Mean: 588.401
PQLC3 (NM_152391) gene expression, Mean: 307.634
PRSS8 (NM_002773) gene expression, Mean: 925.924
PSAT1 (NM_021154) gene expression, Mean: 2370.22
PTOV1 (NM_017432) gene expression, Mean: 1244.12
PTPLA (NM_014241) gene expression, Mean: 295.309
RAB3IP (NM_175624) gene expression, Mean: 976.727
RALY (NM_007367) gene expression, Mean: 1409.6
RASIP1 (NM_017805) gene expression, Mean: 236.587
RASL11B (NM_023940) gene expression, Mean: 570.022
RCN2 (NM_002902) gene expression, Mean: 957.657
REEP6 (NM_138393) gene expression, Mean: 581.805
RNF130 (NM_018434) gene expression, Mean: 258.36
ROD1 (NM_005156) gene expression, Mean: 1065.57
RPS6KA2 (NM_0010069) gene expression, Mean: 170.158
SAT1 (NM_002970) gene expression, Mean: 2411.02
SCARB1 (NM_005505) gene expression, Mean: 698.95
SCNN1A (NM_001038) gene expression, Mean: 2384.6
SEMA4B (NM_198925) gene expression, Mean: 455.134
SEMA4D (NM_006378) gene expression, Mean: 404.578
SEMA6B (NM_032108) gene expression, Mean: 327.203
SH2B3 (NM_005475) gene expression, Mean: 459.878
SLC3A2 (NM_0010132) gene expression, Mean: 701.201
SLC8A2 (NM_015063) gene expression, Mean: 221.546
SLC16A10 (NM_018593) gene expression, Mean: 222.7
SLC22A23 (NM_021945) gene expression, Mean: 371.628
SND1 (NM_014390) gene expression, Mean: 806.495
SOX2 (NM_003106) gene expression, Mean: 507.636
SPRY1 (NM_005841) gene expression, Mean: 278.849
SPSB2 (NM_032641) gene expression, Mean: 738.293
SRPX (NM_006307) gene expression, Mean: 221.585
SURF6 (NM_006753) gene expression, Mean: 1956.16
TBCD (NM_005993) gene expression, Mean: 565.581
TCEA2 (NM_198723) gene expression, Mean: 471.659
TCF7L1 (NM_031283) gene expression, Mean: 182.485
TIMP4 (NM_003256) gene expression, Mean: 657.953
TMC6 (NM_007267) gene expression, Mean: 426.897
TMEM145 (NM_173633) gene expression, Mean: 204.077
TPST2 (NM_0010085) gene expression, Mean: 683.535
TRAPPC9 (NM_031466) gene expression, Mean: 145.068
TSPAN9 (NM_006675) gene expression, Mean: 1493.67
TUBB4 (NM_006087) gene expression, Mean: 455.752
UBE2E2 (NM_152653) gene expression, Mean: 521.892
UNC84B (NM_015374) gene expression, Mean: 307.131
VCX2 (NM_016378) gene expression, Mean: 178.538
VCX3A (NM_016379) gene expression, Mean: 405.641
VCX3B (NM_0010018) gene expression, Mean: 466.812
VSNL1 (NM_003385) gene expression, Mean: 462.603
WDR8 (NM_017818) gene expression, Mean: 819.149
XBP1 (NM_0010795) gene expression, Mean: 860.839
XM_373896 gene expression, Mean: 451.855
XM_926633 gene expression, Mean: 6671.37
XM_932919 gene expression, Mean: 278.004
XM_933796 gene expression, Mean: 430.873
XM_943677 gene expression, Mean: 268.065
ZBTB46 (NM_025224) gene expression, Mean: 246.643
ZSWIM4 (NM_023072) gene expression, Mean: 558.806
HIST1H2BK (NM_080593) gene expression, Mean (first HIST1H2BK entry (r906)): 1161.66
TRPC4AP (NM_015638) gene expression, Mean (first TRPC4AP entry (r880)): 1093.15
HIST1H2BK (NM_080593) gene expression, Mean (second HIST1H2BK entry (r952)): 355.319
TRPC4AP (NM_015638) gene expression, Mean (second TRPC4AP entry (r892)): 1137.74
